In ChEMBL document CHEMBL3797180, “Squaramides with cytotoxic activity against human gastric carcinoma cells HGC-27: synthesis and mechanism of action” (Medchemcomm, 2016):
Activity calls are given as the source filed them. The rule behind the calls is not given here.

What was measured:
[1] = Cytotoxicity against human T98 cells by MTT assay; type: functional, cell-based
HGC-27 [2] = assay: Induction of apoptosis in HGC27 cells at 2 uM co-treated with autophagy inhibitor chloroquine after 24 hrs by Annexin-V-FITC/propidium iodide staining-based flow cytometry; type: functional, cell-based; conditions: Homo sapiens
HGC-27 [3] = assay: Induction of apoptosis in HGC27 cells at 2 uM co-treated with autophagy inhibitor 3-MA after 24 hrs by Annexin-V-FITC/propidium iodide staining-based flow cytometry; type: functional, cell-based; conditions: Homo sapiens
HGC-27 [4] = assay: (§1) Cytotoxicity against HGC27 cells after 24 hrs by MTT assay; type: functional, cell-based; conditions: Homo sapiens
[5] = as §1; type: functional, cell-based; conditions: Homo sapiens, HGC-27, 24 h
[6] = Cell cycle arrest in HGC27 cells assessed as accumulation at G0/G1 phase after 24 hrs at 5 uM by propidium idoide staining based flow cytometric analysis; type: functional; conditions: Homo sapiens, HGC-27
HGC-27 [7] = assay: Induction of apoptosis in HGC27 cells at 8 uM after 24 hrs in presence of pan-caspase inhibitor Z-VAD-FMK by Annexin-V-FITC/propidium iodide staining-based flow cytometry; type: functional, cell-based; conditions: Homo sapiens
HGC-27 [8] = assay: Induction of apoptosis in HGC27 cells assessed as increase in necrotic cells at 2 uM co-treated with autophagy inhibitor chloroquine after 24 hrs by Annexin-V-FITC/propidium iodide staining-based flow cytometry; type: functional, cell-based; conditions: Homo sapiens
Vero [9] = assay: Cytotoxicity against African green monkey Vero cells by MTT assay; type: cell-based; conditions: Chlorocebus sabaeus
Vero [10] = assay: Cytotoxicity against African green monkey Vero cells assessed as cellular ATP level after 24 hrs by SRB assay; type: cell-based; conditions: Chlorocebus sabaeus
HGC-27 [11] = assay: Induction of apoptosis in HGC27 cells assessed as necrotic cells at 8 uM after 24 hrs in presence of RIP1 inhibitor necrostatin-1 by Annexin-V-FITC/propidium iodide staining-based flow cytometry; type: functional, cell-based; conditions: Homo sapiens
HGC-27 [12] = assay: Induction of apoptosis in HGC27 cells at 8 uM after 24 hrs in presence of cathepsin-B inhibitor-3 by Annexin-V-FITC/propidium iodide staining-based flow cytometry; type: functional, cell-based; conditions: Homo sapiens
HGC-27 [13] = assay: Induction of apoptosis in HGC27 cells assessed as apoptotic cells at 2.5 uM after 24 hrs by Annexin-V-FITC/propidium iodide staining-based flow cytometry (reference value: 6.7%); type: functional, Homo sapiens
HGC-27 [14] = assay: Induction of apoptosis in HGC27 cells assessed as apoptotic cells at 1 uM after 24 hrs by Annexin-V-FITC/propidium iodide staining-based flow cytometry (reference value: 6.7%); type: functional, Homo sapiens
HGC-27 [15] = assay: Induction of autophagy in HGC27 cells assessed as increase in LC3-2 level after 24 hrs by Western blotting method; type: functional, cell-based; conditions: Homo sapiens
HGC-27 [16] = assay: Induction of apoptosis in HGC27 cells at 8 uM after 24 hrs in presence of caspase 9 inhibitor Z-LEHD-FMK by Annexin-V-FITC/propidium iodide staining-based flow cytometry; type: functional, cell-based; conditions: Homo sapiens
MDCK [17] = assay: Cytotoxicity against MDCK cells assessed as cellular ATP level after 24 hrs by SRB assay; type: cell-based; conditions: Canis lupus familiaris
HGC-27 [18] = assay: Induction of apoptosis in HGC27 cells assessed as reduction in mitochondrial membrane potential at 2 and 8 uM after 24 hrs by JC-1 staining based flow cytometric analysis; type: functional, cell-based; conditions: Homo sapiens
HGC-27 [19] = assay: Induction of autophagy in HGC27 cells assessed as increase in LC3-2 level after 24 hrs by Western blotting method in presence of lysosomal dysfunction inducer PI; type: functional, cell-based; conditions: Homo sapiens
HeLa [20] = assay: Cytotoxicity against human HeLa cells assessed as inhibition of cell viability at 20 uM after 24 hrs by MTT assay; type: functional, cell-based
[21] = Cytotoxicity against HGC27 cells after 48 hrs by MTT assay; type: functional, cell-based; conditions: Homo sapiens, HGC-27, 48 h
HGC-27 [22] = assay: Induction of apoptosis in HGC27 cells assessed as increase in necrotic cells at 2 uM co-treated with autophagy inhibitor 3-MA after 24 hrs by Annexin-V-FITC/propidium iodide staining-based flow cytometry; type: functional, cell-based; conditions: Homo sapiens
[23] = Cell cycle arrest in HGC27 cells assessed as decrease in S-phase population after 24 hrs at 5 uM by propidium idoide staining based flow cytometric analysis; type: functional; conditions: Homo sapiens, HGC-27
[24] = Cytotoxicity against HGC27 cells assessed as cellular ATP level after 24 hrs by SRB assay; type: functional, cell-based; conditions: Homo sapiens, HGC-27, 24 h
HGC-27 [25] = assay: Induction of apoptosis in HGC27 cells assessed as apoptotic cells at 8 uM after 24 hrs by Annexin-V-FITC/propidium iodide staining-based flow cytometry (reference value: 6.7%); type: functional, Homo sapiens
HeLa [26] = assay: Cytotoxicity against human HeLa cells after 24 hrs by MTT assay; type: functional, cell-based
HGC-27 [27] = assay: Induction of reactive oxygen species formation in HGC27 cells at 1.4 to 24 uM after 5 hrs using DCFH-DA probe by spectrofluorimetry; type: functional, cell-based; conditions: Homo sapiens
HGC-27 [28] = assay: Induction of apoptosis in HGC27 cells at 8 uM after 24 hrs in presence of caspase 8 inhibitor Z-IETD-FMK by Annexin-V-FITC/propidium iodide staining-based flow cytometry; type: functional, cell-based; conditions: Homo sapiens
[29] = Cell cycle arrest in HGC27 cells assessed as accumulation at G2/GM phase after 24 hrs at 500 nM by propidium idoide staining based flow cytometric analysis; type: functional; conditions: Homo sapiens, HGC-27
HEK293 = assay: Cytotoxicity against HEK293 cells by MTT assay; type: cell-based; conditions: Homo sapiens
MDCK [30] = assay: Cytotoxicity against MDCK cells by MTT assay; type: cell-based; conditions: Canis lupus familiaris
HGC-27 [31] = assay: Induction of apoptosis in HGC27 cells assessed as apoptotic cells after 24 hrs by Annexin-V-FITC/propidium iodide staining-based flow cytometry; type: functional, cell-based; conditions: Homo sapiens
HeLa [32] = assay: Cytotoxicity against human HeLa cells assessed as inhibition of cell viability at 100 uM after 24 hrs by MTT assay; type: functional, cell-based
[33] = Cytotoxicity against human U87 cells by MTT assay; type: functional, cell-based, U-87MG ATCC; conditions: U-87 MG
HGC-27 [34] = assay: Induction of apoptosis in HGC27 cells assessed as necrotic cells at 8 uM after 24 hrs in presence of cathepsin-B inhibitor-3 by Annexin-V-FITC/propidium iodide staining-based flow cytometry; type: functional, cell-based; conditions: Homo sapiens
[35] = Cell cycle arrest in HGC27 cells assessed as decrease in G2/M phase population after 24 hrs at 5 uM by propidium idoide staining based flow cytometric analysis; type: functional; conditions: Homo sapiens, HGC-27

In the case of `O=c1c(Nc2cc(C(F)(F)F)cc(C(F)(F)F)c2)c(N[C@@H](c2ccccc2)C(O)(c2ccccc2)c2ccccc2)c1=O`, the IC50 [1] is reported as 7.15 µM, the Activity (HGC-27 [2]) is reported as “Active” and the Activity (HGC-27 [3]) is reported as “Active”. The Activity (HGC-27 [4]) was “Dose-dependent effect”, the IC50 [5] was 1.81 µM and the Activity [6] was “Active”. The Activity (HGC-27 [7]) was “Active”, the Activity (HGC-27 [8]) was “Active” and the IC50 (Vero [9]) was 33.4 µM. The IC50 (Vero [10]) was 73.9 µM, the Activity (HGC-27 [11]) was “Active” and the Activity (HGC-27 [12]) was “Active”. For the same compound, the Activity (HGC-27 [13]) was 24.7%, the Activity (HGC-27 [14]) was 2.4% and the Activity (HGC-27 [15]) was “Active”. For the same compound, the Activity (HGC-27 [16]) was “inactive”, the IC50 (MDCK [17]) was 149 µM and the Activity (HGC-27 [18]) was “Active”. The Activity (HGC-27 [19]) was “Active”, the inhibition (HeLa [20]) was “Active” and the IC50 [21] was 0.66 µM. For the same compound, the Activity (HGC-27 [22]) was “Active”, the Activity [23] was “Active” and the IC50 [24] was 9.74 µM. The Activity (HGC-27 [25]) was 60.1%, the IC50 (HeLa [26]) was 34.6 µM and the Activity (HGC-27 [27]) was “inactive”. For the same compound, the Activity (HGC-27 [28]) was “Active”, the Activity [29] was “Active” and the IC50 (HEK293) was 9.03 µM. For the same compound, the IC50 (MDCK [30]) was 70.2 µM, the Activity (HGC-27 [31]) was “Dose-dependent effect” and the inhibition (HeLa [32]) was “Active”. For the same compound, the IC50 [33] was 60.2 µM, the Activity (HGC-27 [34]) was “Active” and the Activity [35] was “Active”.
